Usually kon stands for the rate constant with which the complex forms.

This assay concerns the target T1, Neutrophil elastase (Homo sapiens, UniProt P08246).
T1 sequence (P08246 whole entry): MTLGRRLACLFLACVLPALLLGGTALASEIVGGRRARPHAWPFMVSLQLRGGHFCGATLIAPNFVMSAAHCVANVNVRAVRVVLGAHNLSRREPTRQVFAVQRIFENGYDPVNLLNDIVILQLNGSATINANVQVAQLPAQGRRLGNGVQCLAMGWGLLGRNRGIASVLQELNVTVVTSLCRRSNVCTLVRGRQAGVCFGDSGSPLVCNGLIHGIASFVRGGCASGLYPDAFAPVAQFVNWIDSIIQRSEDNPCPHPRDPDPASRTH
The experiment in a line: Compound was evaluated for the inhibitory activity against Human leukocyte elastase; time-dependent inhibition was not observed. The settings on record: read-out: kon (M-1-s-1).

For the compound `CC[C@H]1C(=O)N(C(=O)NCc2ccccc2)[C@H]1Oc1ccc(C(=O)O)cc1`, the association rate constant (kon) amounted to 5.6 M⁻¹ s⁻¹.

The values are drawn from BindingDB's records for doi:10.7270/Q2V69MR5 (n/a, 1993).
